Reference: patent publication US4156724A, “N-acylamino-alpha-arylacetamido cephalosporins and antibacterial compositions and methods containing them” (Sumitomo Chemical Company, Limited, priority 1974, dated 1979)
Converted amounts (≈) assume the structure as drawn.

Legend:
Assay type in all cases: cell-based
[1] = tested on: Staphylococcus aureus 209 P; test: Minimum Inhibitory Concentration, Staphylococcus aureus 209 P; details: Staphylococcus aureus 209 P; for MIC: read-out: Minimum Inhibitory Concentration
Description: (§1) anti-microbial activity tests were carried out on the compounds obtained in the Examples.

Escherichia coli NIHJ = test: Minimum Inhibitory Concentration, Escherichia coli NIHJ; details: Escherichia coli NIHJ; for MIC: read-out: Minimum Inhibitory Concentration
Description: as §1

[2] = tested on: Staphylococcus aureus FS 289; test: Minimum Inhibitory Concentration, Staphylococcus aureus FS 289; details: Staphylococcus aureus FS 289, strain resistant to penicillin; for MIC: FS289, read-out: Minimum Inhibitory Concentration
Description: as §1
*Staphylococcus aureus FS 289: strain resistant to penicillin

[3] = tested on: Pseudomonas aeruginosa 104; test: Minimum Inhibitory Concentration, Pseudomonas aeruginosa 104; details: Pseudomonas aeruginosa 104; for MIC: read-out: Minimum Inhibitory Concentration
Description: as §1

[4] = tested on: Enterobacter aerogeneus No. 75; test: Minimum Inhibitory Concentration, Enterobacter aerogeneus No. 75; details: Enterobacter aerogeneus No. 75; for MIC: read-out: Minimum Inhibitory Concentration
Description: as §1

Proteus vulgaris HX 19 = test: Minimum Inhibitory Concentration, Proteus vulgaris HX 19; details: Proteus vulgaris HX 19; for MIC: HX19, read-out: Minimum Inhibitory Concentration
Description: as §1

[5] = tested on: Klebsiella pneumoniae 602; test: Minimum Inhibitory Concentration, Klebsiella pneumoniae 602; details: for MIC: Klebsiella pneumoniae, 602, Klebsiella pneumoniae 602, read-out: Minimum Inhibitory Concentration
Description: as §1

Serratia No. 72 = test: Minimum Inhibitory Concentration, Serratia No. 72
Description: as §1

SMILES | MIC [1] [µg/mL] | MIC (Escherichia coli NIHJ) [µg/mL] | MIC [2] [µg/mL] | MIC [3] [µg/mL] | MIC [4] [µg/mL] | MIC (Proteus vulgaris HX 19) [µg/mL] | MIC [5] [µg/mL] | MIC (Serratia No. 72) [µg/mL] | Minimum Inhibitory Concentration [1] [µg/mL] | Minimum Inhibitory Concentration (Escherichia coli NIHJ) [µg/mL] | Minimum Inhibitory Concentration [2] [µg/mL] | Minimum Inhibitory Concentration [3] [µg/mL] | Minimum Inhibitory Concentration [4] [µg/mL] | Minimum Inhibitory Concentration (Proteus vulgaris HX 19) [µg/mL] | Minimum Inhibitory Concentration ([5]; Klebsiella pneumoniae 602) [µg/mL] | Minimum Inhibitory Concentration (Serratia No. 72) [µg/mL]
O=C(O)C1=C(CSc2nncs2)CSC2C(NC(=O)C(NC(=O)c3cncnc3O)c3ccc(CO)cc3)C(=O)N12 (stereo not shown) [Example 95] | 0.78 (≈ 1.27 µM) | 25 (≈ 40.6 µM) | 12.5 (≈ 20.3 µM) | 25 (≈ 40.6 µM) | 25 (≈ 40.6 µM) | 0.78 (≈ 1.27 µM) | 12.5 (≈ 20.3 µM) | 50 (≈ 81.2 µM) |  |  |  |  |  |  |  | 
NC(=O)Nc1cccc([C@@H](NC(=O)c2cnc3cccnc3c2O)C(=O)N[C@@H]2C(=O)N3C(C(=O)O)=C(CSc4nnc(CO)s4)CS[C@H]23)c1 [Example 36] | 0.78 (≈ 1.08 µM) | 3.13 (≈ 4.32 µM) | 6.25 (≈ 8.64 µM) | 3.13 (≈ 4.32 µM) | 6.25 (≈ 8.64 µM) | 0.2 (≈ 0.276 µM) | 1.56 (≈ 2.16 µM) | 12.5 (≈ 17.3 µM) |  |  |  |  |  |  |  | 
Nc1cccc(C(NC(=O)c2cnc3cccnc3c2O)C(=O)NC2C(=O)N3C(C(=O)O)=C(CSc4nnc(CO)s4)CSC23)c1 (stereo not shown) [Example 66] | 0.78 (≈ 1.15 µM) | 3.13 (≈ 4.6 µM) | 6.25 (≈ 9.18 µM) | 3.13 (≈ 4.6 µM) | 3.13 (≈ 4.6 µM) | 0.1 (≈ 0.147 µM) | 3.13 (≈ 4.6 µM) | 12.5 (≈ 18.4 µM) |  |  |  |  |  |  |  | 
CC(=O)OCC1=C(C(=O)O)N2C(=O)C(NC(=O)C(NC(=O)c3cnc4cccnc4c3O)c3cccc(N)c3)C2SC1 (stereo not shown) [Example 53] | 1.56 (≈ 2.63 µM) | 3.13 (≈ 5.28 µM) | 6.25 (≈ 10.5 µM) | 6.25 (≈ 10.5 µM) | 6.25 (≈ 10.5 µM) | 0.39 (≈ 0.658 µM) | 1.56 (≈ 2.63 µM) | 50 (≈ 84.4 µM) |  |  |  |  |  |  |  | 
O=C(O)C1=C(CSc2nnc(CO)s2)CSC2C(NC(=O)[C@H](NC(=O)c3cnc4cccnc4c3O)c3ccc(O)cc3)C(=O)N12 (stereo partly shown) [Example 150] | 0.78 (≈ 1.14 µM) | 3.13 (≈ 4.59 µM) | 6.25 (≈ 9.17 µM) | 3.13 (≈ 4.59 µM) | 6.25 (≈ 9.17 µM) | 0.2 (≈ 0.293 µM) | 1.56 (≈ 2.29 µM) | 12.5 (≈ 18.3 µM) |  |  |  |  |  |  |  | 
Cc1ccc2c(O)c(C(=O)NC(C(=O)NC3C(=O)N4C(C(=O)O)=C(CSc5nnc(C)s5)CSC34)c3ccc(CO)cc3)cnc2n1 (stereo not shown) [Example 100] | 1.56 (≈ 2.25 µM) | 3.13 (≈ 4.51 µM) | 6.25 (≈ 9.01 µM) | 6.25 (≈ 9.01 µM) | 6.25 (≈ 9.01 µM) | 0.39 (≈ 0.562 µM) | 6.25 (≈ 9.01 µM) | 50 (≈ 72.1 µM) |  |  |  |  |  |  |  | 
CC(=O)OCC1=C(C(=O)O)N2C(=O)[C@@H](NC(=O)[C@H](NC(=O)c3nnc4ccccc4c3O)c3ccc(NC(N)=O)cc3)[C@H]2SC1 [Example 9] | 0.78 (≈ 1.23 µM) | 12.5 (≈ 19.7 µM) | 6.25 (≈ 9.83 µM) | 12.5 (≈ 19.7 µM) | 12.5 (≈ 19.7 µM) | 0.39 (≈ 0.614 µM) | 12.5 (≈ 19.7 µM) | 50 (≈ 78.7 µM) |  |  |  |  |  |  |  | 
CNc1nnc(SCC2=C(C(=O)O)N3C(=O)C(NC(=O)[C@H](NC(=O)c4cnc5cccnc5c4O)c4ccc(O)cc4)C3SC2)s1 (stereo partly shown) [Example 152] | 0.78 (≈ 1.15 µM) | 3.13 (≈ 4.6 µM) | 6.25 (≈ 9.18 µM) | 3.13 (≈ 4.6 µM) | 6.25 (≈ 9.18 µM) | 0.2 (≈ 0.294 µM) | 1.56 (≈ 2.29 µM) | 12.5 (≈ 18.4 µM) |  |  |  |  |  |  |  | 
Cn1nnnc1SCC1=C(C(=O)O)N2C(=O)C(NC(=O)[C@H](NC(=O)c3cnc4nc(N5CCCC5)cnc4c3O)c3ccc(O)cc3)C2SC1 (stereo partly shown) [Example 147] | 1.56 (≈ 2.17 µM) | 3.13 (≈ 4.35 µM) | 12.5 (≈ 17.4 µM) | 3.13 (≈ 4.35 µM) | 6.25 (≈ 8.68 µM) | 1.56 (≈ 2.17 µM) | 3.13 (≈ 4.35 µM) | 25 (≈ 34.7 µM) |  |  |  |  |  |  |  | 
CC(=O)OCC1=C(C(=O)[O-])N2C(=O)C(NC(=O)C(NC(=O)c3cnc4cccnc4c3O)c3ccc(O)c(O)c3)C2SC1.[Na+] (stereo not shown) [Example 142] |  |  |  |  |  |  |  |  | 1.56 | 3.13 | 6.25 | 6.25 | 6.25 | 0.78 | 3.13 | 50
Cn1nnnc1SCC1=C(C(=O)O)N2C(=O)C(NC(=O)C(NC(=O)c3cnc4ccc(O)nc4c3O)c3ccc(O)cc3)C2SC1 (stereo not shown) [Example 174] | 0.78 (≈ 1.17 µM) | 3.13 (≈ 4.7 µM) | 12.5 (≈ 18.8 µM) | 3.13 (≈ 4.7 µM) | 3.13 (≈ 4.7 µM) | 0.39 (≈ 0.586 µM) | 1.56 (≈ 2.34 µM) | 12.5 (≈ 18.8 µM) |  |  |  |  |  |  |  | 
Cn1nnnc1SCC1=C(C(=O)O)N2C(=O)C(NC(=O)C(NC(=O)c3cnc4cncnc4c3O)c3ccc(CO)cc3)C2SC1 (stereo not shown) [Example 108] | 1.56 (≈ 2.35 µM) | 3.13 (≈ 4.71 µM) | 12.5 (≈ 18.8 µM) | 6.25 (≈ 9.4 µM) | 6.25 (≈ 9.4 µM) | 0.2 (≈ 0.301 µM) | 3.13 (≈ 4.71 µM) | 25 (≈ 37.6 µM) |  |  |  |  |  |  |  | 

Further compounds by falling MIC [1], results first:

MIC [1] [µg/mL] | MIC (Escherichia coli NIHJ) [µg/mL] | MIC [2] [µg/mL] | MIC [3] [µg/mL] | MIC [4] [µg/mL] | MIC (Proteus vulgaris HX 19) [µg/mL] | MIC [5] [µg/mL] | MIC (Serratia No. 72) [µg/mL] | SMILES | Minimum Inhibitory Concentration [1] [µg/mL] | Minimum Inhibitory Concentration (Escherichia coli NIHJ) [µg/mL] | Minimum Inhibitory Concentration [2] [µg/mL] | Minimum Inhibitory Concentration [3] [µg/mL] | Minimum Inhibitory Concentration [4] [µg/mL] | Minimum Inhibitory Concentration (Proteus vulgaris HX 19) [µg/mL] | Minimum Inhibitory Concentration ([5]; Klebsiella pneumoniae 602) [µg/mL] | Minimum Inhibitory Concentration (Serratia No. 72) [µg/mL]
0.39 (≈ 0.593 µM) | 12.5 (≈ 19 µM) | 6.25 (≈ 9.5 µM) | 6.25 (≈ 9.5 µM) | 6.25 (≈ 9.5 µM) | 0.1 (≈ 0.152 µM) | 3.13 (≈ 4.76 µM) | 50 (≈ 76 µM) | Cc1nnc(SCC2=C(C(=O)O)N3C(=O)[C@@H](NC(=O)[C@H](NC(=O)c4ccnnc4O)c4cccc(NC(N)=O)c4)[C@H]3SC2)s1 [Example 15] |  |  |  |  |  |  |  | 
0.39 (≈ 0.619 µM) | 6.25 (≈ 9.93 µM) | 6.25 (≈ 9.93 µM) | 6.25 (≈ 9.93 µM) | 12.5 (≈ 19.9 µM) | 0.2 (≈ 0.318 µM) | 6.25 (≈ 9.93 µM) | 50 (≈ 79.4 µM) | Nc1cccc(C(NC(=O)c2cnccc2O)C(=O)NC2C(=O)N3C(C(=O)O)=C(CSc4nnc(CO)s4)CSC23)c1 (stereo not shown) [Example 69] |  |  |  |  |  |  |  | 
0.39 (≈ 0.608 µM) | 6.25 (≈ 9.74 µM) | 6.25 (≈ 9.74 µM) | 6.25 (≈ 9.74 µM) | 12.5 (≈ 19.5 µM) | 0.1 (≈ 0.156 µM) | 3.13 (≈ 4.88 µM) | 50 (≈ 77.9 µM) | Cn1nnnc1SCC1=C(C(=O)O)N2C(=O)[C@@H](NC(=O)[C@H](NC(=O)c3ccnnc3O)c3ccc(NC(N)=O)cc3)[C@H]2SC1 [Example 17] |  |  |  |  |  |  |  | 
0.39 (≈ 0.718 µM) | 12.5 (≈ 23 µM) | 3.13 (≈ 5.76 µM) | 6.25 (≈ 11.5 µM) | 25 (≈ 46 µM) | 0.2 (≈ 0.368 µM) | 6.25 (≈ 11.5 µM) | > 200 | CC(=O)OCC1=C(C(=O)O)N2C(=O)C(NC(=O)[C@H](NC(=O)c3ccnnc3O)c3ccc(O)cc3)C2SC1 (stereo partly shown) [Example 116] |  |  |  |  |  |  |  | 
0.39 (≈ 0.667 µM) | 12.5 (≈ 21.4 µM) | 3.13 (≈ 5.35 µM) | 6.25 (≈ 10.7 µM) | 25 (≈ 42.8 µM) | 0.2 (≈ 0.342 µM) | 12.5 (≈ 21.4 µM) | > 200 | CC(=O)OCC1=C(C(=O)O)N2C(=O)[C@@H](NC(=O)[C@H](NC(=O)c3cnccc3O)c3ccc(NC(N)=O)cc3)[C@H]2SC1 [Example 1, 7-[D-α-(4-Hydroxypyridine-3-carboxyamido)-α-p-ureidophenylacetamido]cephalosporanic Acid] |  |  |  |  |  |  |  | 
0.39 (≈ 0.667 µM) | 25 (≈ 42.8 µM) | 6.25 (≈ 10.7 µM) | 12.5 (≈ 21.4 µM) | 25 (≈ 42.8 µM) | 0.39 (≈ 0.667 µM) | 25 (≈ 42.8 µM) | > 200 | CC(=O)OCC1=C(C(=O)O)N2C(=O)[C@@H](NC(=O)[C@H](NC(=O)c3cccnc3O)c3ccc(NC(N)=O)cc3)[C@H]2SC1 [Example 3] |  |  |  |  |  |  |  | 
0.39 (≈ 0.649 µM) | 6.25 (≈ 10.4 µM) | 6.25 (≈ 10.4 µM) | 6.25 (≈ 10.4 µM) | 12.5 (≈ 20.8 µM) | 0.1 (≈ 0.166 µM) | 6.25 (≈ 10.4 µM) | 50 (≈ 83.2 µM) | Nc1cccc(C(NC(=O)c2ccnnc2O)C(=O)NC2C(=O)N3C(C(=O)O)=C(CSc4nncs4)CSC23)c1 (stereo not shown) [Example 59] |  |  |  |  |  |  |  | 
0.39 (≈ 0.64 µM) | 6.25 (≈ 10.3 µM) | 6.25 (≈ 10.3 µM) | 6.25 (≈ 10.3 µM) | 25 (≈ 41 µM) | 0.2 (≈ 0.328 µM) | 3.13 (≈ 5.13 µM) | 100 (≈ 164 µM) | Nc1cccc(C(NC(=O)c2cnccc2O)C(=O)NC2C(=O)N3C(C(=O)O)=C(CSc4ccc(O)nn4)CSC23)c1 (stereo not shown) [Example 85] |  |  |  |  |  |  |  | 
